US9808466B2, “Macrocyclic compounds as protein kinase inhibitors” (Fundación Centro Nacional de Investigaciones Oncologicas …, priority 2011, dated 2017)
Like-named read-outs stand apart in the source and are kept apart here.

Assays:
mTOR = molecular target: T1, mTOR (Homo sapiens, UniProt P42345); experiment: mTOR assay (LanthaScreen kinase activity assay); assay type: biochemical
T1 construct: purchased Invitrogen PV4754
Experimental: The enzymatic mTOR activity was measured using a LanthaScreen™ kinase activity assay (Invitrogen). The enzyme was purchased from Invitrogen (PV4754), as well as the GFP-labeled substrate (4EBP1-GFP; PV4759) and the Tb-anti-p4EBP1(pThr46) antibody (PV4757). The assay was performed in 50 mM HEPES buffer, pH 7.5, containing 1.5 mM MnCl2, 10 mM MgCl2, 1 mM EGTA, 2.5 mM DTT and 0.01% Tween-20. The concentration of the assay components were the following: 0.24 nM mTOR kinase, 400 nM 4EBP1-GFP, […] and serial dilutions of the compound (inhibitor) to be evaluated. After 1 h incubation at room temperature, 20 mM EDTA was used to stop the reaction and terbium-labeled antibody (4 nM) added to detect phosphorylated product. The antibody associates with the phosphorylated product resulting in an increased TR-FRET value. The TR-FRET value (a dimensionless number) was calculated as the ratio of the acceptor signal (GFP, emission at 520 nm) to the donor signal (terbium, emission at 495 nm). Values were plotted against the inhibitor concentration and fitted to a sigmoid dose-response curve using GraphPad software.

PIM-1 = molecular target: T2, PIM-1 (Homo sapiens, UniProt P11309); experiment: PIM-1 biochemical assay (ADP Hunter); details: PIM1
T2 construct: histidine tag (C); made in house
T2 sequence (P11309 whole entry): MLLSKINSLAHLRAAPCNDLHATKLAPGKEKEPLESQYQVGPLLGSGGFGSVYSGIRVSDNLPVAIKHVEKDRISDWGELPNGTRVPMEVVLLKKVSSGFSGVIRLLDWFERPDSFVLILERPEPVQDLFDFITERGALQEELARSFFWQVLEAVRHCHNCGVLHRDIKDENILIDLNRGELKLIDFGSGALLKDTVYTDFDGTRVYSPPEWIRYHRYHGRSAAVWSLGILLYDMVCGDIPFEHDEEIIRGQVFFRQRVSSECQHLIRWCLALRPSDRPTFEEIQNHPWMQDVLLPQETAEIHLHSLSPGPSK
Description: The biochemical assay to measure PIM-1 activity relies on the ADP Hunter assay kit (DiscoveRx Corp., Cat. #90-0077), that determines the amount of ADP as direct product of the kinase enzyme activity.
The enzyme has been expressed and purified in-house as a recombinant human protein with a C-terminal histidine tag. The protein is active and stable.
Assay conditions were as indicated by the kit manufacturers with the following adaptations for the kinase activity step: • Kinase assay buffer and assay volume stay as recommended (15 mM HEPES, pH 7.4, 20 mM NaCl, 1 mM EGTA, 0.02% Tween 20, 10 mM MgCl2 and 0.1 mg/ml bovine γ-globulins/75 μl assay volume) • Incubation time and temperature: 60 min at 30° C. • PIM-1 concentration: 50 pg/μl • ATP concentration: 100 μM • PIM-1 substrate peptide: PIMtide ([…]) (SEQIDNO. 1) • Peptide concentration: 60 μM • Positive control for kinase activity inhibition: 1-10 μM Staurosporine • DMSO concentration have to stay below 2% during the kinase reaction
Assays were performed in either 96 or 384-well plates. The final outcome of the coupled reactions provided by the kit is the release of the fluorescent product Resorufin and has been measured with a multilabel HTS counter VICTOR V (PerkinElmer) using an excitation filter at 544 nm and an emission filter at 580 nm.

PI3K (p110α/p85α) = molecular target: T3, PI3K (p110α/p85α) (Homo sapiens, UniProt P42336); experiment: PI3K activity assay (ADP Hunter Plus); assay type: biochemical
T3 construct: purchased Carna Biosciences 07CBS-0402A
T3 sequence (P42336 whole entry): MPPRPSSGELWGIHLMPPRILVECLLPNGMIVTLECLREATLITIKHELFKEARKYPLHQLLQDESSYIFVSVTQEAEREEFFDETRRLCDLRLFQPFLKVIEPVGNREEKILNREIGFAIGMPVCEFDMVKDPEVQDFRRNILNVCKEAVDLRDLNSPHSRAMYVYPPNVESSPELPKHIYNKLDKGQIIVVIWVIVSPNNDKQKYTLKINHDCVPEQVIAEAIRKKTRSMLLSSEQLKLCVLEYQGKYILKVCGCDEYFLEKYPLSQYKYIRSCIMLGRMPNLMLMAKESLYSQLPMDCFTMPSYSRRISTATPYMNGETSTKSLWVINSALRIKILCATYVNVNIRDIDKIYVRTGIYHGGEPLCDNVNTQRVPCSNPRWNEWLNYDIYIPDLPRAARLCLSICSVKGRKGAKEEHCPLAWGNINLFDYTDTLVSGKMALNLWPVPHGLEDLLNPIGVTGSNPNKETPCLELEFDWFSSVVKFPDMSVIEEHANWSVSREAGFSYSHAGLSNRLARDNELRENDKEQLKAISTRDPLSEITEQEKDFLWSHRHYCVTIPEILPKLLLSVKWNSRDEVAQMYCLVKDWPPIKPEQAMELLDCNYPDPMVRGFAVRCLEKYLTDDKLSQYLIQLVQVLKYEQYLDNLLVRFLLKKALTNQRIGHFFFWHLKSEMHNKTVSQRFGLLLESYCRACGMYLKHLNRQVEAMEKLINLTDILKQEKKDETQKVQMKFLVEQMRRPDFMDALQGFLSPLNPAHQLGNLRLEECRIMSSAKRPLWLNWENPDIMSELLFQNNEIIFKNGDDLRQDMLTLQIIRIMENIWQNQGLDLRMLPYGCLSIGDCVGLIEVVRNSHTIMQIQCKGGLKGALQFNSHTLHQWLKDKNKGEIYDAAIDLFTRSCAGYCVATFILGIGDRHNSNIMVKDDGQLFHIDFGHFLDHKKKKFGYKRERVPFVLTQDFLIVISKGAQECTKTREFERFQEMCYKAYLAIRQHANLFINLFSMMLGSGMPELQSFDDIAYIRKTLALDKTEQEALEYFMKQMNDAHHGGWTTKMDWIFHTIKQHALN
T3 sequence (P27986 whole entry partner): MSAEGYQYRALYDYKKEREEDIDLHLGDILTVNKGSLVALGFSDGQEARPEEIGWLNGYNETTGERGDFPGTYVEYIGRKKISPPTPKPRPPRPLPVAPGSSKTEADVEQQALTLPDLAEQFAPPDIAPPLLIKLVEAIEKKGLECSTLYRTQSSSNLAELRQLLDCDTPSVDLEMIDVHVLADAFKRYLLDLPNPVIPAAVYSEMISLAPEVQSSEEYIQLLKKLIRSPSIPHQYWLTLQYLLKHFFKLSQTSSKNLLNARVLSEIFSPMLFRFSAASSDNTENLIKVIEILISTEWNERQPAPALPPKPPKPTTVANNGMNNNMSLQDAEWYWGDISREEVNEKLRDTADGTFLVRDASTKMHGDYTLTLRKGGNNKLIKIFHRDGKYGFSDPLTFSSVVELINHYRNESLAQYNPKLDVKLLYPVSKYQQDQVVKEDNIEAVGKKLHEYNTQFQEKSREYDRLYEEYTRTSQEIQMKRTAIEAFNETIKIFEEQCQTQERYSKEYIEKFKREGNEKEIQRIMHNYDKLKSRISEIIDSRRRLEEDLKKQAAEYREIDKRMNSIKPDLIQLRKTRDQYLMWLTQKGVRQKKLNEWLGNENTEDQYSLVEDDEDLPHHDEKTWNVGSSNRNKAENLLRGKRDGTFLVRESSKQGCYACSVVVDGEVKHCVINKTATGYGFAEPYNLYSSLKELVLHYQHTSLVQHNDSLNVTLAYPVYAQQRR
Experimental: The kinase activity was measured by using the commercial ADP Hunter™ Plus assay available from DiscoveRx (#33-016), which is a homogeneous assay to measure the accumulation of ADP, a universal product of kinase activity. […] Reaction was carried out for 1 hour at 25° C. Reagent A and B were sequentially added to the wells and plates were incubated for 30 min at 37° C. Fluorescence counts were read in a Victor instrument (Perkin Elmer) with the recommended settings (544 and 580 nm as excitation and emission wavelengths, respectively). Values were normalized against the control activity included for each enzyme (i.e., 100% PI3 kinase activity, without compound). These values were plotted against the inhibitor concentration and were fit to a sigmoid dose-response curve by using the Graphad software.

[1] = read-out: mTOR activity, IC50 (semi-quantitative class)
[2] = read-out: mTOR actual IC50 (in parentheses)
[3] = read-out: PIM-1 activity, IC50 (semi-quantitative class)
[4] = read-out: PI3K alpha activity, IC50 (semi-quantitative class)
[5] = read-out: PI3K alpha actual IC50 (in parentheses)
[6] = read-out: PIM-1 actual IC50 (in parentheses)

T1 sequence (P42345 1360-2549 limits assumed): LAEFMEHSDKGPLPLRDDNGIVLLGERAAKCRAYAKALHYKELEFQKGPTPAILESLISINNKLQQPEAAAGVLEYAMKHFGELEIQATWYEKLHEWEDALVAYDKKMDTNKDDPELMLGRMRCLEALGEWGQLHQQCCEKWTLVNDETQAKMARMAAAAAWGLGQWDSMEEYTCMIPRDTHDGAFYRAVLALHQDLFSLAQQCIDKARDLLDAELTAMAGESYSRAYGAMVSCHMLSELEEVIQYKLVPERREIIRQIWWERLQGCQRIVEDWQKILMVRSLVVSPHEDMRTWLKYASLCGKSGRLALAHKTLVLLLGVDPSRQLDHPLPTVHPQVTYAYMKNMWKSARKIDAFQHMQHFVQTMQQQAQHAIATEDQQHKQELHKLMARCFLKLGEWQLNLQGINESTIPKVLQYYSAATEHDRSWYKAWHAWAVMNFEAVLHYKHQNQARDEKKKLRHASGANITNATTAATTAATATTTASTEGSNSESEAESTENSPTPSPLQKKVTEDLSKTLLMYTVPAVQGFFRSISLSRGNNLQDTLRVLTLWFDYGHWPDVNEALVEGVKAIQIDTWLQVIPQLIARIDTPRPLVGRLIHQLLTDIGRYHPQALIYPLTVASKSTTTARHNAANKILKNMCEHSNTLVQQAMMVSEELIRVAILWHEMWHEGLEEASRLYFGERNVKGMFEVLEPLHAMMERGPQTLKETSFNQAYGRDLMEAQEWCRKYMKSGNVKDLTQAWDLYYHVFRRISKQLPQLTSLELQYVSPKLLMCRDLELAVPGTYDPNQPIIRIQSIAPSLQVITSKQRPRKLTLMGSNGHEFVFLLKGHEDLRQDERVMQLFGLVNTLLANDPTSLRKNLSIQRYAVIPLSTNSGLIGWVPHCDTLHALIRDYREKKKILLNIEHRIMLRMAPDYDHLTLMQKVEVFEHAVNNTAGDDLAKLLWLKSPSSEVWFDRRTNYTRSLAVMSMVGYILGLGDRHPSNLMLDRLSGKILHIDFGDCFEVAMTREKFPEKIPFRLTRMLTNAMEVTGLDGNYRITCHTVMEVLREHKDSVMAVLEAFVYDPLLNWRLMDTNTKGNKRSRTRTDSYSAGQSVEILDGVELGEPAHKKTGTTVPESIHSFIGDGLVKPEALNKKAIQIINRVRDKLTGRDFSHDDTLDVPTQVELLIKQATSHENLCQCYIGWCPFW

SMILES | IC50 (mTOR; [1]) [µM] | IC50 (mTOR; [2]) [µM] | IC50 (PIM-1; [3]) [µM] | IC50 (PI3K (p110α/p85α); [4]) [µM] | IC50 (PI3K (p110α/p85α); [5]) [µM] | IC50 (PIM-1; [6]) [µM]
COc1ncc2cc1NS(=O)(=O)c1cccc(c1)C(=O)NCc1cncc(c1)-c1cnc3ccc-2cn13 [compound 30] | < 0.1 | 0.049 | > 1 | < 0.1 | 0.011 | 
COc1ncc2cc1NS(=O)(=O)c1cccc(c1)C(=O)NCC1CCN(CC1)c1ncnc3ccc-2cc13 [compound 32] | < 0.1 | 0.005 | > 1 | < 0.1 | 0.002 | 
COc1ncc2cc1NS(=O)(=O)c1cccc(c1)C(=O)NCCn1cc(cn1)-c1cnc3ccc-2cn13 [compound 34] | < 0.1 | 0.066 | > 1 | < 0.1 | 0.0076 | 
COc1ncc2cc1NS(=O)(=O)c1cccc(c1)C(=O)NCc1cccc(c1)-c1ccnc3ccc-2nc13 [compound 35] | < 0.1 | 0.016 | > 1 | < 0.1 | 0.005 | 
COc1ncc2cc1NS(=O)(=O)c1cccc(c1)C(=O)NCCn1cc(cn1)-c1ncnc3c1SC2=C3 [compound 36] | > 1 |  | 0.1 to 1 | 0.1 to 1 |  | 
COc1ncc2cc1NS(=O)(=O)c1cccc(c1)C(=O)NCc1cccc(c1)-c1ncnc3sc-2cc13 [compound 37] | > 1 |  | > 1 | < 0.1 | 0.02 | 
COc1ncc2cc1NS(=O)(=O)c1cccc(c1)C(=O)NCC1CCN(CC1)c1ncnc3cc-2sc13 [compound 38] | > 1 |  | > 1 | > 1 |  | 
COc1ncc2cc1NS(=O)(=O)c1cccc(c1)C(=O)NCCN1CC=C(CC1)c1cnc3ccc-2cn13 [compound 40] | < 0.1 | 0.036 | > 1 | < 0.1 | 0.003 | 
COc1ncc2cc1NS(=O)(=O)c1cccc(c1)C(=O)NCc1cncc(c1)-c1ncnc3ccc-2cc13 [compound 41] | < 0.1 | 0.016 | > 1 | < 0.1 | 0.003 | 
COc1ncc2cc1NS(=O)(=O)c1cccc(c1)C(=O)NCc1cc(ccn1)-c1ncnc3c1SC2=C3 [compound 42] | > 1 |  | 0.1 to 1 | 0.1 to 1 |  | 
O=C1NCc2cc(ccn2)-c2ncnc3c2SC(=C3)c2cncc(c2)NS(=O)(=O)c2cccc1c2 [compound 43] | > 1 |  | < 0.1 | < 0.1 | 0.044 | 0.041
COc1ncc2cc1NS(=O)(=O)c1cc(c(F)cc1F)C(=O)NCc1cncc(c1)-c1ncnc3c1SC2=C3 [compound 44] | > 1 |  | > 1 | 0.1 to 1 |  | 
O=C1NCc2cncc(c2)-c2ncnc3c2SC(=C3)c2cnc(O)c(c2)NS(=O)(=O)c2cccc1c2 [compound 45] | > 1 |  | 0.1 to 1 | > 1 |  | 
COc1ncc2cc1N(C)S(=O)(=O)c1cccc(c1)C(=O)NCc1cncc(c1)-c1ncnc3c1SC2=C3 [compound 46] | > 1 |  | > 1 | > 1 |  | 
COc1ncc2cc1NS(=O)(=O)c1cccc(c1)C(=O)Nc1cncc(c1)-c1ncnc3c1SC2=C3 [compound 47] | < 0.1 | 0.0085 | > 1 | < 0.1 | 0.099 | 
COc1ncc2cc1NS(=O)(=O)c1ccc(F)c(c1)C(=O)NCc1cncc(c1)-c1ncnc3c1SC2=C3 [compound 48] | > 1 |  | < 0.1 | < 0.1 | 0.048 | 0.052
O=C1NCc2cncc(c2)-c2ccnc3ccc(cc23)-c2cncc(c2)NS(=O)(=O)c2cccc1c2 [compound 49] | 0.1 to 1 |  | > 1 | < 0.1 | 0.068 | 
CC(C)Oc1ncc2cc1NS(=O)(=O)c1cccc(c1)C(=O)NCc1cncc(c1)-c1ncnc3c1SC2=C3 [compound 50] | > 1 |  | > 1 | > 1 |  | 
COc1ncc2cc1NS(=O)(=O)c1cccc(c1)C(=O)NCCn1cc(cn1)-c1ncnc3c1OC2=C3 [compound 51] | > 1 |  | > 1 | 0.1 to 1 |  | 
COc1ncc2cc1NS(=O)(=O)c1cc(ccc1F)C(=O)NCc1cncc(c1)-c1ncnc3c1SC2=C3 [compound 52] | > 1 |  | 0.1 to 1 | 0.1 to 1 |  | 
COc1ncc2cc1NS(=O)(=O)c1cc(cc(C(F)(F)F)c1)C(=O)NCc1cncc(c1)-c1ncnc3c1SC2=C3 [compound 53] | > 1 |  | > 1 | > 1 |  | 
COc1ncc2cc1NS(=O)(=O)c1cccc(c1)C(=O)NCc1cncc(c1)-c1nc(C)nc3c1SC2=C3 [compound 54] | > 1 |  | > 1 | 0.1 to 1 |  | 
COc1ncc2cc1NS(=O)(=O)c1cccc(c1)C(=O)NCC1=CC=C(S1)c1ncnc3c1SC2=C3 [compound 55] | > 1 |  | < 0.1 | 0.1 to 1 |  | 0.012
COc1ncc2cc1NS(=O)(=O)c1cccc(c1)C(=O)NCc1cncc(c1)-c1ncnc3c1SC2=C3C [compound 56] | 0.1 to 1 |  | < 0.1 | < 0.1 | 0.013 | 0.056
COc1ncc2cc1NS(=O)(=O)c1cccc(c1)C(=O)NCCn1cc(cn1)-c1ncnc3c1SC2=C3C [compound 57] | 0.1 to 1 |  | 0.1 to 1 | < 0.1 | 0.0008 | 
O=C1NCc2cncc(c2)-c2ncnc3c2SC(=C3)c2cnc(Cl)c(c2)NS(=O)(=O)c2cccc1c2 [compound 58] | > 1 |  | 0.1 to 1 | < 0.1 | 0.0036 | 
CC(C)Oc1ncc2cc1NS(=O)(=O)c1cccc(c1)C(=O)NCCn1cc(cn1)-c1ncnc3c1SC2=C3 [compound 59] | > 1 |  | > 1 | > 1 |  | 
